Series [1] has as its system H460 non-small cell lung cancer (NSCLC) cell line. Briefly: Alamar blue cytotoxicity assay in H460 NSCLC tumour cell line. Type of series: cell-based. The following applies: H460 cells, 72 hours, average of three independent experiments. As to the method: (§1) In order to determine the cellular potency of the compounds, the cytotoxicity of each compound was determined against the H460 non-small cell lung cancer (NSCLC) cell line. Standard cytotoxicity methods were performed as follows: H460 cells were seeded in 96-well plates appropriately for their doubling time (3000 cells per well) in RPMI media containing 10% FCS and incubated overnight at 37° C., 5% CO2. The media was removed and 100 μl fresh media containing increasing concentrations of appropriate compound was added and the cells incubated for 72 hours at 37° C., 5% CO2. A 10% stock of alamar blue (Roche, Lewes, United Kingdom) was prepared in medium and 100 μl added to the cells which were incubated for 2 hours.

In the next series the target is CYP2D6 (Homo sapiens (Human), UniProt P10635). The experiment in a line: CYP2D6 inhibition, human liver microsomes, dextromethorphan. Type of series: in vitro ADME. As to the method:
Six test compound concentrations (0.05, 0.25, 0.5, 2.5, 5, 25 μM in DMSO; final DMSO concentration=0.25%) were incubated with human liver microsomes (0.5 mg/mL) and NADPH (1 mM) in the presence of the probe substrate dextromethorphan (5 μM) for 30 min at 37° C. The selective CYP2D6 inhibitor, quinidine, was screened alongside the test compounds as a positive control.
(§2) For the CYP1A incubations, the reactions were terminated by the addition of methanol, and the formation of the metabolite, resorufin, was monitored by fluorescence (excitation wavelength=535 nm, emission wavelength=595 nm). For the CYP2C9, CYP2C19, CYP2D6, and CYP3A4 incubations, the reactions were terminated by the addition of methanol containing internal standard. The samples were then centrifuged, and the supernatants were combined, for the simultaneous analysis of 4-hydroxytolbutamide, 4-hydroxymephenyloin, dextrorphan, and 1-hydroxymidazolam plus internal standard by LC-MS/MS using generic LC-MS/MS conditions. Formic acid in deionised water (final concentration=0.1%) was added to the final sample prior to analysis.

The target in the next series is CYP3A4 (Homo sapiens (Human), UniProt P08684). The experiment in a line: CYP3A4 inhibition, human liver microsomes, midazolam. Type of series: in vitro ADME. Here is the method: Six test compound concentrations (0.05, 0.25, 0.5, 2.5, 5, 25 μM in DMSO; final DMSO concentration 0.26%) were incubated with human liver microsomes (0.25 mg/mL) and NADPH (1 mM) in the presence of the probe substrate midazolam (2.5 μM) for 5 min at 37° C. The selective CYP3A4 inhibitor, ketoconazole, was screened alongside the test compounds as a positive control.
as §2
In general terms: Liver microsomes are a subcellular fraction often used to study metabolism.

In a further series the target is CYP2C19 (Homo sapiens (Human), UniProt P33261). Briefly: Cytochrome P450 substrate identification (Bactosomes) CYP2C19. Type of series: in vitro ADME. The following applies: pH 7.4, 5 μM test compound, up to 45 min, read-out: half life in the presence of CYP2C19. Here is the method:
(§3) cDNA expressed human CYP450 enzyme preparations co-expressed with human NADPH cytochrome P450 reductase (Bactosomes™) were supplied by Cypex Ltd. Bactosomes™ (final P450 concentration CYP1A2 100 pmol/mL, CYP2C8 50 pmol/mL, CYP2C9 25 pmol/mL, CYP2C19 100 pmol/mL, CYP2D6 50 pmol/mL and CYP3A4 25 pmol/mL), 0.1M phosphate buffer pH7.4 and test compound (final substrate concentration=5 μM; final DMSO concentration=0.25%) were pre-incubated at 37° C. prior to the addition of NADPH (final concentration=1 mM) to initiate the reaction. Incubations were also performed using control bactosomes (no P450 enzymes present) to reveal any non-enzymatic degradation. The final incubation volume was 25 μL. Compounds known to be metabolised specifically by each CYP450 isoform were used as control compounds.
(§4) Each compound was incubated singly for 0, 5, 15, 30 and 45 min with each CYP isoform. The reactions were stopped by the addition of 50 μL methanol containing internal standard at the appropriate time points. The incubation plates were centrifuged at 2500 rpm for 20 min at 4° C. to precipitate the protein. Following protein precipitation, the sample supernatants were combined in cassettes of up to four compounds and analysed using generic LC-MS/MS conditions.
(§5) The In peak area ratio (which has been corrected for any loss in the incubations with the control bactosomes) was plotted against time and the gradient of the line determined.
(§6) The elimination rate constant (k)=(−gradient)

For a further series, the target named is CYP2C8 (Homo sapiens (Human), UniProt P10632). The experiment in a line: Cytochrome P450 substrate identification (Bactosomes) CYP2C8. Type of series: in vitro ADME. The following applies: pH 7.4, 5 μM test compound, up to 45 min, read-out: half life in the presence of CYP2C8. Here is the method: as §3, §4, §5, §6
A further series concerns H1650. The experiment in a line: Alamar blue cytotoxicity assay H1650. Type of series: cell-based. The following applies: Homo sapiens, NCI-H1650; 72 hours; read-out: cellular cytotoxicity IC50 H1650. Here is the method: as §1, with “a range of” for “the H460 non-small”, “lines.” for “lung cancer (NSCLC) cell line.”, “follows:” for “follows: H460”, “(2-5000” for “(3000”, “RPMI or DMEM” for “RPMI”, “hours. Absorbance was measured on the Wallac Victor 2 1420 multi-label counter at 544-595 nm.” for “hours.”

Another series relates to Colo205. The experiment in a line: Alamar blue cytotoxicity assay Colo205. Type of series: cell-based. The note with it: Homo sapiens, COLO 205; 72 hours; read-out: cellular cytotoxicity IC50 Colo205. As to the method:
as §1, with “a range of” for “the H460 non-small”, “lines.” for “lung cancer (NSCLC) cell line.”, “follows:” for “follows: H460”, “(2-5000” for “(3000”, “RPMI or DMEM” for “RPMI”, “hours. Absorbance was measured on the Wallac Victor 2 1420 multi-label counter at 544-595 nm.” for “hours.”
In general terms: Resazurin is reduced to fluorescent resorufin, in cell work by metabolically active cells.

A further series concerns A549. Briefly: Alamar blue cytotoxicity assay A549. The note with it: Homo sapiens, 72 hours, read-out: cellular cytotoxicity IC50 A549. Type of series: cell-based. As to the method:
as §1, with “a range of” for “the H460 non-small”, “lines.” for “lung cancer (NSCLC) cell line.”, “follows:” for “follows: H460”, “(2-5000” for “(3000”, “RPMI or DMEM” for “RPMI”, “hours. Absorbance was measured on the Wallac Victor 2 1420 multi-label counter at 544-595 nm.” for “hours.”

The next series has as its system MESSA. The experiment in a line: Alamar blue cytotoxicity assay MESSA. Type of series: cell-based. The note with it: Homo sapiens, MES-SA; 72 hours; read-out: cellular cytotoxicity IC50 MESSA. Here is the method: as §1, with “a range of” for “the H460 non-small”, “lines.” for “lung cancer (NSCLC) cell line.”, “follows:” for “follows: H460”, “(2-5000” for “(3000”, “RPMI or DMEM” for “RPMI”, “hours. Absorbance was measured on the Wallac Victor 2 1420 multi-label counter at 544-595 nm.” for “hours.”

The next series deals with MESSA-Dx5. Briefly: Alamar blue cytotoxicity assay MESSA-Dx5. Type of series: cell-based. The note with it: Homo sapiens, MES-SA/Dx5; 72 hours; read-out: cellular cytotoxicity IC50 MESSA-Dx5. Here is the method:
as §1, with “a range of” for “the H460 non-small”, “lines.” for “lung cancer (NSCLC) cell line.”, “follows:” for “follows: H460”, “(2-5000” for “(3000”, “RPMI or DMEM” for “RPMI”, “hours. Absorbance was measured on the Wallac Victor 2 1420 multi-label counter at 544-595 nm.” for “hours.”

For a further series, the system named is MCF7. Briefly: Alamar blue cytotoxicity assay MCF7. Type of series: cell-based. The note with it: Homo sapiens, 72 hours, read-out: cellular cytotoxicity IC50 MCF7. As to the method: as §1, with “a range of” for “the H460 non-small”, “lines.” for “lung cancer (NSCLC) cell line.”, “follows:” for “follows: H460”, “(2-5000” for “(3000”, “RPMI or DMEM” for “RPMI”, “hours. Absorbance was measured on the Wallac Victor 2 1420 multi-label counter at 544-595 nm.” for “hours.”

The next series relates to A2780. Briefly: Alamar blue cytotoxicity assay A2780. Type of series: cell-based. The following applies: Homo sapiens, 72 hours, read-out: cellular cytotoxicity IC50 A2780. Here is the method: as §1, with “a range of” for “the H460 non-small”, “lines.” for “lung cancer (NSCLC) cell line.”, “follows:” for “follows: H460”, “(2-5000” for “(3000”, “RPMI or DMEM” for “RPMI”, “hours. Absorbance was measured on the Wallac Victor 2 1420 multi-label counter at 544-595 nm.” for “hours.”

The next series relates to H358. Briefly: Alamar blue cytotoxicity assay H358. Type of series: cell-based. The following applies: Homo sapiens, NCI-H358; 72 hours; read-out: cellular cytotoxicity IC50 H358. As to the method: as §1, with “a range of” for “the H460 non-small”, “lines.” for “lung cancer (NSCLC) cell line.”, “follows:” for “follows: H460”, “(2-5000” for “(3000”, “RPMI or DMEM” for “RPMI”, “hours. Absorbance was measured on the Wallac Victor 2 1420 multi-label counter at 544-595 nm.” for “hours.”

Bounds are passed on as bounds.

From patent US8592581B2, “Trisubstituted purine derivatives” (Cyclacel Limited, priority 2007, dated 2013) come the findings set out here.

Chain of CYP3A4 (P08684 whole entry): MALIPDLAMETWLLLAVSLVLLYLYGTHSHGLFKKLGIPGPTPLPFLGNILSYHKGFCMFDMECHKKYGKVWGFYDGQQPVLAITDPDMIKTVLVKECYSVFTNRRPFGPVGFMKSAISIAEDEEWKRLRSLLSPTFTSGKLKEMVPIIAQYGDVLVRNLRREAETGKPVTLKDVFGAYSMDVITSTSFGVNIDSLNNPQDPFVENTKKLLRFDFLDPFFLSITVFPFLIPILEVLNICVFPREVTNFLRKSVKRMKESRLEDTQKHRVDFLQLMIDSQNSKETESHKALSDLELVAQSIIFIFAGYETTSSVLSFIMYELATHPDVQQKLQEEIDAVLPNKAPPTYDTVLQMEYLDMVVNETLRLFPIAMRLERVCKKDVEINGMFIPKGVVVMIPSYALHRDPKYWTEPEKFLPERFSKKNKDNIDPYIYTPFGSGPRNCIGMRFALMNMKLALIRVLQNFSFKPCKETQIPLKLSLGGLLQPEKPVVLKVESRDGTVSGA
Chain of CYP2D6 (P10635 whole entry): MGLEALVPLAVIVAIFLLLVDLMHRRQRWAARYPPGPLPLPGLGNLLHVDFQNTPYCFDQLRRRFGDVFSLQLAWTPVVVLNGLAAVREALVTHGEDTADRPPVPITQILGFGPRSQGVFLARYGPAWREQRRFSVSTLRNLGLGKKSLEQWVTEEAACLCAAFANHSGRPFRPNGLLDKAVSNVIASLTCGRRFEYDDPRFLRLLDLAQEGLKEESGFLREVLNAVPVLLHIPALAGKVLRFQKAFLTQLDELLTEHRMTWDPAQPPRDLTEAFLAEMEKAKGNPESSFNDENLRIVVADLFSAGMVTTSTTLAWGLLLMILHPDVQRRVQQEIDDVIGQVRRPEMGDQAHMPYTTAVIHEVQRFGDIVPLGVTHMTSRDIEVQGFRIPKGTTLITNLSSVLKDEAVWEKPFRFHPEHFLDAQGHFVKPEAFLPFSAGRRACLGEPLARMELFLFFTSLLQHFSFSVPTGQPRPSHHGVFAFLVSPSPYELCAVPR
Chain of CYP2C19 (P33261 whole entry): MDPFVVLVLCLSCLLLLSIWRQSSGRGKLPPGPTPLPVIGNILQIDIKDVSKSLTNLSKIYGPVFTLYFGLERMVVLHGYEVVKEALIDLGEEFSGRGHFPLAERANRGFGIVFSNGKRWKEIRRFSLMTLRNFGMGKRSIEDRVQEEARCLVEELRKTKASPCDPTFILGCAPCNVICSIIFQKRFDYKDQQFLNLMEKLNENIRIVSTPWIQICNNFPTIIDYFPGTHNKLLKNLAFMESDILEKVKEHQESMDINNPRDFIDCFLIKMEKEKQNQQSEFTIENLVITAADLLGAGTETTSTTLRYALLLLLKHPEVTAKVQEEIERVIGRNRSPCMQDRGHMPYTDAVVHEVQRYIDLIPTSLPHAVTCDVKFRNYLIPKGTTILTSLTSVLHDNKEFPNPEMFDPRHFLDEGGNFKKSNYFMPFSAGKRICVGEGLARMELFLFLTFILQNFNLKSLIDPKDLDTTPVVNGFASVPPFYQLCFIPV
Chain of CYP2C8 (P10632 whole entry): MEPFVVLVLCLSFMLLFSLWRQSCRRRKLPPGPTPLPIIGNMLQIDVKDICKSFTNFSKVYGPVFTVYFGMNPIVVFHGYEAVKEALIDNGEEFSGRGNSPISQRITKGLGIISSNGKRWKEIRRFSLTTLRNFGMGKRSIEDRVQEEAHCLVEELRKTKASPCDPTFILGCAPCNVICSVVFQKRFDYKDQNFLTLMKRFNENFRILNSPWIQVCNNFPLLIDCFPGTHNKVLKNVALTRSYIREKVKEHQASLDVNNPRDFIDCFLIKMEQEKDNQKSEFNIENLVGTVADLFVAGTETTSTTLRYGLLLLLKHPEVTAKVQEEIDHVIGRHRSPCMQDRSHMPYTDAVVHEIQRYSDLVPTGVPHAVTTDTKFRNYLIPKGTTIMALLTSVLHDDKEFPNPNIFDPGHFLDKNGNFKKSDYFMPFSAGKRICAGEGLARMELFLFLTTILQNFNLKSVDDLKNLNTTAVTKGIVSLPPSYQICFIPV

For `CC[C@H](Nc1nc(NCc2cnc(C)cc2C)c2ncn(C(C)C)c2n1)[C@@H](C)O` [Compound [1]], the half-inhibitory concentration (IC50) was 500 nM in series [1]; less than 1000 nM in [1] (Homo sapiens, NCI-H460, 72 h); greater than 25 µM against CYP2D6; 22.5 µM on CYP3A4 (human liver microsomes); 460 nM in the series on H1650; 310 nM with Colo205. Moreover, the half-inhibitory concentration (IC50) with A549 turned out to be 160 nM; in the series on MESSA, 160 nM; with MESSA-Dx5, 1210 nM; in the series with MCF7, 260 nM; with A2780, 410 nM; in the series on H358, 180 nM. In addition, the “CYP3A4-inhibiting concentration as multiple of cellular IC50” value at CYP3A4 is listed as roughly 60 times. Further, the “concentration up to which CYP3A4 is not inhibited” value on CYP3A4 is “greater than 20 μM”. Further, on CYP3A4, the “inhibition of CYP3A4 (in words)” value was “does not significantly inhibit CYP3A4”. The half-life at 5 μM at CYP2C19 and on CYP2C8 was greater than 45 min each time.

Broadly, the IC50 is the concentration that gives 50% inhibition. The half-life is how long it takes for the measured level to halve.
